Values quoted from earlier work, collected in patent US8202852B2, “Creatine phosphate analog prodrugs, compositions and uses thereof” (XenoPort, Inc., priority 2006, dated 2012).
Read-outs that look alike come from different tables or passages of the source.

Assays:
[1] = not given; remark: listed apart in the source
[2] = animals, diet containing up to 1%

Structure (SMILES): CN(CC(=O)O)C(=N)N [creatine, Creatine]
- overall increase in creatine phosphate levels (creatine supplementation, typically takes weeks): < 50%
- increase in cerebral creatine phosphate (healthy volunteers, oral creatine administration): about 10%

Structure (SMILES): CN(CC(=O)O)C(=N)NP(=O)(O)O [creatine phosphate]
- adverse side effects ([1]; patients with cardiac diseases, intravenous injection up to 8 gm/day): without adverse side effects

Structure (SMILES): NC1=NCCN1CC(=O)O [cyclocreatine]
- adverse effects [2]: do not exhibit adverse effects

Structure (SMILES): CN(CC(=O)O)C(=N)N.O [creatine monohydrate]
- adverse side effects ([1]; athletes and body builders, 2-3 gm/day): without adverse side effects
